Results taken from ChEMBL document CHEMBL3808371, “Design, synthesis and biological evaluation of diaziridinyl quinone isoxazole hybrids” (Eur J Med Chem, 2016).
Converted amounts (≈) assume the structure as drawn. The source made the active and inactive calls. No cut-off for these calls is given here.

What was measured:
A549 = assay: Cytotoxicity against human A549 cells after 72 hrs by XTT assay; type: functional, cell-based; settings: A549, 72 h
[1] = Cytotoxicity against human PC3 cells after 72 hrs by XTT assay; type: functional, cell-based; settings: PC-3, 72 h
Bacillus subtilis [2] = assay: Antimicrobial activity against Bacillus subtilis MTCC 121 after 24 hrs by well diffusion method; type: functional; settings: MTCC 121, 24 h
Escherichia coli = assay: Antimicrobial activity against Escherichia coli MTCC 739 after 24 hrs by well diffusion method; type: functional; settings: MTCC 739, 24 h
Pseudomonas aeruginosa = assay: Antimicrobial activity against Pseudomonas aeruginosa MTCC 2453 after 24 hrs by well diffusion method; type: functional; settings: MTCC 2453, 24 h
Bacillus subtilis [3] = assay: Antibiofilm activity against Bacillus subtilis MTCC 121 after 24 hrs by crystal violet staining based assay; type: functional, organism-based; settings: MTCC 121, 24 h
Micrococcus luteus [4] = assay: Bactericidal activity against Micrococcus luteus MTCC 2470 after 24 hrs by serial dilution method; type: functional; settings: MTCC 2470, 24 h
Candida albicans = assay: Antimicrobial activity against Candida albicans MTCC 3017 after 24 hrs by well diffusion method; type: functional
Raoultella planticola [5] = assay: Bactericidal activity against Klebsiella planticola MTCC 530 after 24 hrs by serial dilution method; type: functional; settings: MTCC 530, 24 h
Staphylococcus aureus [6] = assay: Antimicrobial activity against Staphylococcus aureus MLS16 MTCC 2940 after 24 hrs by well diffusion method; type: functional; settings: MLS16 MTCC 2940, 24 h
Staphylococcus aureus [7] = assay: Antimicrobial activity against Staphylococcus aureus MTCC 96 after 24 hrs by well diffusion method; type: functional; settings: MTCC 96, 24 h
Micrococcus luteus [8] = assay: Antimicrobial activity against Micrococcus luteus MTCC 2470 after 24 hrs by well diffusion method; type: functional; settings: MTCC 2470, 24 h
Bacillus subtilis [9] = assay: Bactericidal activity against Bacillus subtilis MTCC 121 after 24 hrs by serial dilution method; type: functional; settings: MTCC 121, 24 h
Staphylococcus aureus [10] = assay: Bactericidal activity against Staphylococcus aureus MTCC 96 after 24 hrs by serial dilution method; type: functional; settings: MTCC 96, 24 h
Staphylococcus aureus [11] = assay: Bactericidal activity against Staphylococcus aureus MLS16 MTCC 2940 after 24 hrs by serial dilution method; type: functional; settings: MLS16 MTCC 2940, 24 h
Raoultella planticola [12] = assay: Antimicrobial activity against Klebsiella planticola MTCC 530 after 24 hrs by well diffusion method; type: functional; settings: MTCC 530, 24 h
Raoultella planticola [13] = assay: Antibiofilm activity against Klebsiella planticola MTCC 530 after 24 hrs by crystal violet staining based assay; type: functional, organism-based; settings: MTCC 530, 24 h
Staphylococcus aureus [14] = assay: Antibiofilm activity against Staphylococcus aureus MTCC 96 after 24 hrs by crystal violet staining based assay; type: functional, organism-based; settings: MTCC 96, 24 h
Micrococcus luteus [15] = assay: Antibiofilm activity against Micrococcus luteus MTCC 2470 after 24 hrs by crystal violet staining based assay; type: functional, organism-based; settings: MTCC 2470, 24 h

Q: For `COc1ccc(OC)c(-c2cc(-c3ccc(C(=O)N(C)Cc4ccccc4)s3)on2)c1`, which IC50 (A549) is on record?
A: Its IC50 is > 30 µM.

Q: What about the IC50 [1] of the same compound?
A: Its IC50 is > 30 µM.

Q: For `COc1ccc(OC)c(-c2cc(-c3ccc(C(=O)N4CCCC4)s3)on2)c1`, which IC50 (A549) is on record?
A: Its IC50 is > 30 µM.

Q: And the IC50 [1]?
A: Its IC50 is > 30 µM.

Q: With `O=C1C=C(N2CC2)C(=O)C(c2cc(-c3ccc(C(=O)NCC4CC4)s3)on2)=C1N1CC1` as the compound, how does the IC50 (A549) read?
A: Its IC50 is 2.1 µM.

Q: And the MIC (Bacillus subtilis [2])?
A: The MIC was 15.6 µg/mL (≈ 35.7 µM).

Q: What about the MIC (Escherichia coli) of the same compound?
A: Its MIC is > 125 µg/mL.

Q: What about the MIC (Pseudomonas aeruginosa) of the same compound?
A: Its MIC is > 125 µg/mL.

Q: What about the IC50 (Bacillus subtilis [3]) of the same compound?
A: The IC50 was 9.8 µM.

Q: What about the MBC (Micrococcus luteus [4]) of the same compound?
A: Its MBC is > 125 µg/mL.

Q: What about the IC50 [1] of the same compound?
A: Its IC50 is 3.5 µM.

Q: And the MIC (Candida albicans; MTCC 3017, 24 h)?
A: The MIC was 15.6 µg/mL (≈ 35.7 µM).

Q: And the MBC (Raoultella planticola [5])?
A: The MBC was > 125 µg/mL.

Q: And the MIC (Staphylococcus aureus [6])?
A: Its MIC is > 125 µg/mL.

Q: What about the MIC (Staphylococcus aureus [7]) of the same compound?
A: Its MIC is > 125 µg/mL.

Q: What about the MIC (Micrococcus luteus [8]) of the same compound?
A: The MIC was > 125 µg/mL.

Q: What about the MBC (Bacillus subtilis [9]) of the same compound?
A: The MBC was 31.2 µg/mL (≈ 71.5 µM).

Q: And the MBC (Staphylococcus aureus [10])?
A: The MBC was > 125 µg/mL.

Q: And the MBC (Staphylococcus aureus [11])?
A: The MBC was > 125 µg/mL.

Q: What about the MIC (Raoultella planticola [12]) of the same compound?
A: Its MIC is > 125 µg/mL.

Q: Which IC50 (A549) does the source give for `COc1ccc(CN(C)C(=O)c2ccc(-c3cc(C4=CC(=O)C=CC4=O)no3)s2)cc1` here?
A: Its IC50 is > 30 µM.

Q: And the IC50 [1]?
A: The IC50 was < 30 µM.

Q: Which IC50 (Raoultella planticola [13]) does the source give for `O=C(O)c1cn(C2CC2)c2cc(N3CCNCC3)c(F)cc2c1=O` [CIPROFLOXACIN] here?
A: Its IC50 is 0.6 µM.

Q: What about the MIC (Bacillus subtilis [2]) of the same compound?
A: Its MIC is 0.9 µg/mL (≈ 2.72 µM).

Q: And the MIC (Escherichia coli)?
A: The MIC was 0.9 µg/mL (≈ 2.72 µM).

Q: What about the MIC (Pseudomonas aeruginosa) of the same compound?
A: Its MIC is 0.9 µg/mL (≈ 2.72 µM).

Q: And the MBC (Micrococcus luteus [4])?
A: Its MBC is 0.9 µg/mL (≈ 2.72 µM).

Q: And the MIC (Candida albicans)?
A: The MIC was “inactive”.

Q: And the MBC (Raoultella planticola [5])?
A: Its MBC is 1.9 µg/mL (≈ 5.73 µM).

Q: And the MIC (Staphylococcus aureus [6])?
A: The MIC was 0.9 µg/mL (≈ 2.72 µM).

Q: And the MIC (Staphylococcus aureus [7])?
A: The MIC was 0.9 µg/mL (≈ 2.72 µM).

Q: What about the MIC (Micrococcus luteus [8]) of the same compound?
A: The MIC was 0.9 µg/mL (≈ 2.72 µM).

Q: What about the IC50 (Staphylococcus aureus [14]) of the same compound?
A: The IC50 was 0.7 µM.

Q: What about the IC50 (Micrococcus luteus [15]) of the same compound?
A: Its IC50 is 0.8 µM.

Q: What about the MBC (Bacillus subtilis [9]) of the same compound?
A: The MBC was 1.9 µg/mL (≈ 5.73 µM).

Q: And the MBC (Staphylococcus aureus [10])?
A: The MBC was 0.9 µg/mL (≈ 2.72 µM).

Q: And the MBC (Staphylococcus aureus [11])?
A: The MBC was 1.9 µg/mL (≈ 5.73 µM).

Q: What about the MIC (Raoultella planticola [12]) of the same compound?
A: The MIC was 0.9 µg/mL (≈ 2.72 µM).

Q: For `CCN(CC)C(=O)c1ccc(-c2cc(-c3cc(OC)ccc3OC)no2)s1`, which IC50 (A549) is on record?
A: Its IC50 is 11 µM.

Q: What about the IC50 [1] of the same compound?
A: Its IC50 is > 30 µM.

Q: What does the source list for `CN(Cc1ccc(F)cc1)C(=O)c1ccc(-c2cc(C3=CC(=O)C=CC3=O)no2)s1`?
A: IC50 (A549): > 30 µM; IC50 [1]: > 30 µM

Q: Which results are given for `O=C1C=C(N2CC2)C(=O)C(c2cc(-c3ccc(C(=O)N4CCCC4)s3)on2)=C1N1CC1`?
A: IC50 (A549): 1.7 µM; MIC (Bacillus subtilis [2]): 7.8 µg/mL (≈ 17.9 µM); MIC (Escherichia coli): > 125 µg/mL; MIC (Pseudomonas aeruginosa): > 125 µg/mL; MBC (Micrococcus luteus [4]): 62.5 µg/mL (≈ 143 µM); IC50 [1]: 1 µM; MIC (Candida albicans; MTCC 3017, 24 h): 31.2 µg/mL (≈ 71.5 µM); MBC (Raoultella planticola [5]): 31.2 µg/mL (≈ 71.5 µM); MIC (Staphylococcus aureus [6]): 15.6 µg/mL (≈ 35.7 µM); MIC (Staphylococcus aureus [7]): 15.6 µg/mL (≈ 35.7 µM); MIC (Micrococcus luteus [8]): 31.2 µg/mL (≈ 71.5 µM); MBC (Bacillus subtilis [9]): 15.6 µg/mL (≈ 35.7 µM); MBC (Staphylococcus aureus [10]): 31.2 µg/mL (≈ 71.5 µM); MBC (Staphylococcus aureus [11]): 31.2 µg/mL (≈ 71.5 µM); MIC (Raoultella planticola [12]): 15.6 µg/mL (≈ 35.7 µM)

Q: For `COc1ccc(OC)c(-c2cc(-c3ccc(C(=O)N4CCC(C(F)(F)F)CC4)s3)on2)c1`, which IC50 (A549) is on record?
A: The IC50 was > 30 µM.

Q: What about the IC50 [1] of the same compound?
A: Its IC50 is > 30 µM.

Q: What does the source list for `COc1ccc(OC)c(-c2cc(-c3ccc(C(=O)N(C)Cc4ccc(F)cc4)s3)on2)c1`?
A: IC50 (A549): > 30 µM; IC50 [1]: > 30 µM

Q: With `CCCN(C)C(=O)c1ccc(-c2cc(C3=CC(=O)C=CC3=O)no2)s1` as the compound, how does the IC50 (A549) read?
A: The IC50 was > 30 µM.

Q: And the IC50 [1]?
A: Its IC50 is < 30 µM.

Q: What does the source list for `CN(Cc1ccccc1)C(=O)c1ccc(-c2cc(C3=C(N4CC4)C(=O)C=C(N4CC4)C3=O)no2)s1`?
A: IC50 (A549): 7.3 µM; MIC (Bacillus subtilis [2]): 31.2 µg/mL (≈ 64.1 µM); MIC (Escherichia coli): > 125 µg/mL; MIC (Pseudomonas aeruginosa): > 125 µg/mL; MBC (Micrococcus luteus [4]): 62.5 µg/mL (≈ 128 µM); IC50 [1]: 1.2 µM; MIC (Candida albicans; MTCC 3017, 24 h): > 125 µg/mL; MBC (Raoultella planticola [5]): > 125 µg/mL; MIC (Staphylococcus aureus [6]): 62.5 µg/mL (≈ 128 µM); MIC (Staphylococcus aureus [7]): 31.2 µg/mL (≈ 64.1 µM); MIC (Micrococcus luteus [8]): 15.6 µg/mL (≈ 32.1 µM); MBC (Bacillus subtilis [9]): 125 µg/mL (≈ 257 µM); MBC (Staphylococcus aureus [10]): 62.5 µg/mL (≈ 128 µM); MBC (Staphylococcus aureus [11]): 125 µg/mL (≈ 257 µM); MIC (Raoultella planticola [12]): > 125 µg/mL

Q: Which IC50 (A549) does the source give for `COc1ccc(OC)c(-c2cc(-c3ccc(C(=O)NC4CC4)s3)on2)c1` here?
A: The IC50 was > 30 µM.

Q: And the IC50 [1]?
A: Its IC50 is 7.8 µM.

Q: With `COc1ccc(OC)c(-c2cc(-c3ccc(C(=O)NCC4CC4)s3)on2)c1` as the compound, how does the IC50 (A549) read?
A: Its IC50 is > 30 µM.

Q: What about the IC50 [1] of the same compound?
A: The IC50 was > 30 µM.

Q: Which results are given for `O=C1C=CC(=O)C(c2cc(-c3ccc(C(=O)N4CCC(C(F)(F)F)CC4)s3)on2)=C1`?
A: IC50 (A549): > 30 µM; IC50 [1]: > 30 µM
